{
  "source": "patent US20070149483A1",
  "about": "“Methods and compounds for modulating triglyceride and vldl secretion” (priority 2003, published 2007)",
  "key": {"[1]": {"tested_on": "McA-RH7777 cells stably expressing human apoB100", "assay": "Transmission electron microscopy morphometry of lipid/lipoprotein particles in Golgi and GAV", "assay_type": "cell-based, rat", "conditions": "for relative occurrence of particle type in the GAV: n=221; for relative occurrence of particle type in trans-Golgi saccules 4-6+TGN/secretory vesicles: n=284", "method": "The samples were processed for transmission electron microscopy as previously described (Tran et al., 2002). Single and serial thin sections (silver-gold interference colors) were visualized in a Hitachi H-7000 transmission electron microscope, and captured at a range of negative magnifications (8,000-120,000 times). Panoramic tiling was used to capture large fields. The 3D model was prepared from Golgi fields from 7 consecutive serial images (positive magnification=70,000 times), by the method previously described (Thorne-Tjomsland et al., 1998, Anat. Rec. 250, 381-396), with the following modifications. The serial fields were scanned into Adobe Photoshop 5.5 of an Imac 700 MHz G4 computer. Alignment of consecutive sections by fiducial markers was carried out prior to object-contouring and -separation. Concatenation and volume rendering were done in Synu on an SGI-OS 2, and image capture was with Photoshop on a Macintosh platform. The diameter of electron-dense particles, which represent a combination of lipoprotein particles and lipid droplets, were measured in 40 randomly selected Golgi regions from EPA-treated cells. Negative magnification was 40,000 times and positives were further magnified three times. Measurements were from positives, using a digital caliper [technical specifications in required range (0-150 mm on positive): max resolution=0.01 mm; accuracy=0.02 mm; repeatability=0.01 mm]. The precision in our system was tested by measuring the diameters of each of two electron-dense particles (20 nm and 40 nm diameter) 40 times; SD for the average converted measurements was <1 nm. Criteria for selecting Golgi, establishing cis-trans polarity, and measuring lipid/lipoprotein particles were as described (Tran et al., 2002). Lipid/lipoprotein particles were classified as membrane-associated if directly apposed to the lumenal Golgi leaflet or with a membrane diverging from this, otherwise as lumenal."}, "[2]": {"tested_on": "McA-RH7777 cells expressing human apoB100", "assay": "Pulse-chase of [35S]apoB100 with rate flotation of conditioned medium and microsomal lumen", "assay_type": "cell-based, rat", "conditions": "30 min pulse, end of 1-h chase", "method": "Cell Culture and Fatty Acid Treatments—Transfected McA-RH7777 cells stably expressing human apoB100 (McLeod et al., 1994, J. Biol. Chem. 269, 2852-2862) were cultured in Dulbecco's modified Eagle's medium (DMEM) containing 10% fetal bovine serum (FBS), 10% horse serum and 200 μg/ml G418. Routinely, the cells were incubated with 0.4 mM fatty acids for 16-18 h in the presence of 20% FBS prior to experiments."}, "[3]": {"tested_on": "McA-RH7777 cells stably expressing human apoB100", "assay": "Pulse-chase with subcellular fractionation: membrane-associated apoB100 trafficking", "assay_type": "cell-based, rat", "conditions": "20 min pulse", "method": "The cells were then incubated with chase medium for 15, 30 and 45 min. At the end of each chase time, the medium was collected and subjected to cumulative rate flotation centrifugation (Wang et al., 1999) to resolve apoB100-VLDL1 (Sf>100) and apoB100-VLDL2 (Sf 20-100) from other lipoproteins (i.e. IDL, LDL and HDL). The ^35S-apoB100 in each fraction was recovered by immunoprecipitation. Also, at the end of each chase time, the radiolabeled cells were harvested in 2 ml of ice-cold homogenization buffer (10 mM Tris-HCl, pH 7.4, 250 mM sucrose, 5 mM EDTA, and serine/cysteine protease inhibitor mixture), mixed with two 100-mm dishes of unlabeled cells, homogenized by passing ten times through a ball-bearing homogenizer, and subjected to subcellular fractionation and carbonate-treatment as described below. […]\nAnalysis of ApoB100 Associated with Membranes and Lumenal Contents of Microsomes—Lumenal contents were separated from membranes by sodium carbonate treatment followed by centrifugation (Tran et al., 2002). The ^35S-labelled apoB100 proteins associated with the membrane and lumen were recovered by immunoprecipitation and analyzed by SDS-PAGE/fluorography as previously described (Tran et al., 2002). […]"}, "[4]": {"tested_on": "McA-RH7777 cells stably expressing human apoB100", "conditions": "Tran et al., 2002, cited from earlier work"}, "[5]": {"tested_on": "McA-RH7777 cells stably expressing human apoB100", "assay": "Immunofluorescent localization of apoB and Map1LC3", "assay_type": "cell-based, rat", "conditions": "0.4 mM, 4 h, in comparison to controls", "procedure": "Cells were permeabilized with 1% Triton X-100 in blocking buffer (10% FBS in PBS) for 30 min and probed with primary antibodies, i.e., monoclonal antibody 1D1 (1:1000) for human apoB and polyclonal antibody against rat Map1LC3 (1:200) for 1 h. Cells were then incubated with a mixture of secondary antibodies (1:200), i.e., of goat anti-mouse IgG conjugated with Alexa Fluor™488 (green) and goat anti-rabbit IgG conjugated with Alexa Fluor™594 (red) for 1 h. The coverslips were mounted onto glass slides using SlowFade AntiFade kits (Molecular Probes) and the images were captured by an MRC-1024 laser scanning confocal imaging system. […] The secondary antibody for apoB was conjugated with Alexa Fluor™488 (green), and that for Map1LC3 was conjugated with Alexa Fluor™594 (red)."}, "McA-RH777 cells": {"tested_on": "McA-RH777 cells", "conditions": "oleate-treated cells; cited from earlier work"}},
  "data": [
    {"smiles": "CC/C=C\\C/C=C\\C/C=C\\C/C=C\\C/C=C\\CCCC(=O)O", "note": "[EPA, eicosapentaenoic acid]", "values": [
      {"measurement": "average size of Type I particles in the cis-most Golgi saccule", "setting": "[1]; EPA-treated cells", "result": 100, "unit": "nm"},
      {"measurement": "average size of Type V particles", "setting": "[1]; EPA-treated cells", "result": 54.5, "unit": "nm"},
      {"measurement": "sizes of Type V particles in the Golgi", "setting": "[1]; EPA-treated cells", "result": "25-75 nm"},
      {"measurement": "Percent membrane association of particles", "setting": "[1]; Type I, GAV", "result": 33, "unit": "%"},
      {"measurement": "Percent membrane association of particles", "setting": "[1]; Type I, Golgi saccule 1", "result": 100, "unit": "%"},
      {"measurement": "Percent membrane association of particles", "setting": "[1]; Type I, Golgi saccule 2", "result": 84, "unit": "%"},
      {"measurement": "Percent membrane association of particles", "setting": "[1]; Type I, Golgi saccule 3", "result": 80, "unit": "%"},
      {"measurement": "Percent membrane association of particles", "setting": "[1]; Type I, Golgi saccules 4-6", "result": 73, "unit": "%"},
      {"measurement": "Percent membrane association of particles", "setting": "[1]; Type I, TGN and secretory", "result": 56, "unit": "%"},
      {"measurement": "relative occurrence of particle type in the GAV", "setting": "[1]; Type I", "result": 12, "unit": "%"},
      {"measurement": "relative occurrence of particle type in trans-Golgi saccules 4-6+TGN/secretory vesicles", "setting": "[1]; Type I", "result": 12, "unit": "%"},
      {"measurement": "Percent membrane association of particles", "setting": "[1]; Type II, GAV", "result": 25, "unit": "%"},
      {"measurement": "Percent membrane association of particles", "setting": "[1]; Type II, Golgi saccule 1", "result": 100, "unit": "%"},
      {"measurement": "Percent membrane association of particles", "setting": "[1]; Type II, Golgi saccule 2", "result": 83, "unit": "%"},
      {"measurement": "Percent membrane association of particles", "setting": "[1]; Type II, Golgi saccule 3", "result": 75, "unit": "%"},
      {"measurement": "relative occurrence of particle type in the GAV", "setting": "[1]; Type II", "result": 2, "unit": "%"},
      {"measurement": "relative occurrence of particle type in trans-Golgi saccules 4-6+TGN/secretory vesicles", "setting": "[1]; Type II", "result": 4, "unit": "%"},
      {"measurement": "Percent membrane association of particles", "setting": "[1]; Type III, GAV", "result": 46, "unit": "%"},
      {"measurement": "Percent membrane association of particles", "setting": "[1]; Type III, Golgi saccule 1", "result": 100, "unit": "%"},
      {"measurement": "Percent membrane association of particles", "setting": "[1]; Type III, Golgi saccule 2", "result": 83, "unit": "%"},
      {"measurement": "Percent membrane association of particles", "setting": "[1]; Type III, Golgi saccule 3", "result": 83, "unit": "%"},
      {"measurement": "Percent membrane association of particles", "setting": "[1]; Type III, Golgi saccules 4-6", "result": 82, "unit": "%"},
      {"measurement": "Percent membrane association of particles", "setting": "[1]; Type III, TGN and secretory", "result": 73, "unit": "%"},
      {"measurement": "relative occurrence of particle type in the GAV", "setting": "[1]; Type III", "result": 11, "unit": "%"},
      {"measurement": "relative occurrence of particle type in trans-Golgi saccules 4-6+TGN/secretory vesicles", "setting": "[1]; Type III", "result": 13, "unit": "%"},
      {"measurement": "Percent membrane association of particles", "setting": "[1]; Type IV, GAV", "result": 45, "unit": "%"},
      {"measurement": "Percent membrane association of particles", "setting": "[1]; Type IV, Golgi saccules 4-6", "result": 50, "unit": "%"},
      {"measurement": "Percent membrane association of particles", "setting": "[1]; Type IV, TGN and secretory", "result": 20, "unit": "%"},
      {"measurement": "Percent membrane association of particles", "setting": "[1]; Type IV, combined Golgi saccules 1-3", "result": 67, "unit": "%"},
      {"measurement": "relative occurrence of particle type in the GAV", "setting": "[1]; Type IV", "result": 5, "unit": "%"},
      {"measurement": "relative occurrence of particle type in trans-Golgi saccules 4-6+TGN/secretory vesicles", "setting": "[1]; Type IV", "result": 5, "unit": "%"},
      {"measurement": "Percent membrane association of particles", "setting": "[1]; Type V, GAV", "result": 42, "unit": "%"},
      {"measurement": "Percent membrane association of particles", "setting": "[1]; Type V, Golgi saccule 1", "result": 96, "unit": "%"},
      {"measurement": "Percent membrane association of particles", "setting": "[1]; Type V, Golgi saccule 2", "result": 83, "unit": "%"},
      {"measurement": "Percent membrane association of particles", "setting": "[1]; Type V, Golgi saccule 3", "result": 66, "unit": "%"},
      {"measurement": "Percent membrane association of particles", "setting": "[1]; Type V, Golgi saccules 4-6", "result": 64, "unit": "%"},
      {"measurement": "Percent membrane association of particles", "setting": "[1]; Type V, TGN and secretory", "result": 66, "unit": "%"},
      {"measurement": "relative occurrence of particle type in the GAV", "setting": "[1]; Type V", "result": 70, "unit": "%"},
      {"measurement": "relative occurrence of particle type in trans-Golgi saccules 4-6+TGN/secretory vesicles", "setting": "[1]; Type V", "result": 66, "unit": "%"},
      {"measurement": "increase of [^35S]-apoB100 in fractions of high density (IDL and LDL) in the microsomal lumen", "setting": "[2]; vs oleate", "result": "six-fold"},
      {"measurement": "decrease of [^35S]-apoB100 in VLDL (VLDL1 and VLDL2) in the media, as compared to oleate-treatment", "setting": "[2]; 16 h pretreatment", "result": 50, "unit": "%"}
    ]},
    {"smiles": "CCCCCCCC/C=C\\CCCCCCCC(=O)O", "note": "[Oleate, oleic acid]", "values": [
      {"measurement": "rate at which the membrane-associated [^35S]-apoB100 exited the ER", "setting": "[3]; chase 0, 15, 30 and 45 min", "result": "−0.59±0.17 % of total/min"},
      {"measurement": "rate at which the membrane-associated [^35S]-apoB100 appeared in the distal Golgi", "setting": "[3]; chase 0-45 min", "result": "0.39±0.11 % of total/min"},
      {"measurement": "size of lipoprotein particles detected in oleate-treated cells", "setting": "[4]", "result": 40, "unit": "nm"},
      {"measurement": "average diameters of lipoproteins in Golgi saccules 1-6", "setting": "[4]; oleate-treated McArdle cells", "result": "40±17", "unit": "nm"},
      {"measurement": "autophagy (penetration of Map1LC3 staining into the apoB100-rich perinuclear area, partial co-localization with apoB100)", "setting": "[5]", "result": "induced autophagy"},
      {"measurement": "share of total secreted TG carried by VLDL particles", "setting": "McA-RH777 cells", "result": "> 80", "unit": "%"},
      {"measurement": "share of total secreted apoB100 carried by VLDL particles", "setting": "McA-RH777 cells", "result": "< 10", "unit": "%"}
    ]}
  ]
}
